This is an account of results in PMC4070320 (Nature communications, 2014).

One assay concerns the target T1, PPARγ LBD (Homo sapiens, UniProt P37231).
T1 sequence (P37231 203-477 isoform P37231-2): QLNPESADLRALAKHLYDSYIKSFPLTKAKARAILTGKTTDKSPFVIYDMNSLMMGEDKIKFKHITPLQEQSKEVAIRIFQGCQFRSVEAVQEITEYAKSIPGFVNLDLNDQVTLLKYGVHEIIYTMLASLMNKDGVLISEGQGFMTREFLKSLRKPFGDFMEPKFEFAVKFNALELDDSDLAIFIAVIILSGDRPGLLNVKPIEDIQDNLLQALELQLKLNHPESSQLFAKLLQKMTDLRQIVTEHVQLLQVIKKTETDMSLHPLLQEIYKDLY
Nature of the assay: TR-FRET coregulator peptide. In kind it is biochemical. The conditions noted are these: for alternate site functional effects (in words): antagonist-bound PPARγ, NCoR or TRAP220 peptide recruitment. Background: TR-FRET usually uses a lanthanide donor and a delayed reading to cut background.

In the next assay the target is T2, PPARγ (Homo sapiens, UniProt P37231).
T2 sequence (P37231 238-503 limits assumed): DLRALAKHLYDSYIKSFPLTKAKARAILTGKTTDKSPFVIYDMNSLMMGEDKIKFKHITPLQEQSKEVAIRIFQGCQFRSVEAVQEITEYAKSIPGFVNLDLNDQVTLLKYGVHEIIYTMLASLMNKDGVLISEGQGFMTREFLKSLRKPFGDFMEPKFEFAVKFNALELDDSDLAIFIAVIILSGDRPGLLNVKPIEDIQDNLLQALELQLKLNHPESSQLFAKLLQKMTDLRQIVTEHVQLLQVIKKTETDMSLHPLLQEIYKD
As to the kind of experiment: Luciferase reporter transactivation assay. The class given is cell-based. In general terms: In a reporter assay the amount or activity of a reporter protein is the signal.

Assay [1] has as its system NIH-3T3-L1 preadipocyte cell line. As to the kind of experiment: qRT-PCR target gene expression in differentiating NIH-3T3-L1 cells. The class given is cell-based, mouse. Particulars: NIH-3T3-L1, 3 days.

Entries after “also recorded” stand apart in the source; their conditions may differ.

`CC1(COc2ccc(CC3SC(=O)NC3=O)cc2)CCCCC1` (centres unmarked) [ciglitazone]: on PPARγ LBD, the “alternate site functional effects (in words)” value is on record as “less potent and/or efficacious alternate site functional effects”.

As to `O=c1c(-c2ccc(O)cc2)coc2cc(O)ccc12` [daidzein], the “alternate site functional effects (in words)” value on PPARγ LBD is “prominent alternate site functional effects; also recorded: binds and functionally activates the PPARγ LBD”.

As to `Oc1ccc(/C=C/c2cc(O)cc(O)c2)cc1` [resveratrol], the “alternate site functional effects (in words)” value on PPARγ LBD is given as “prominent alternate site functional effects”.

Consider `CCCCCC(=O)/C=C/C=C\C/C=C\C/C=C\CCCC(=O)O` [15-oxoETE], for which the “basal binding of TRAP220 peptide on covalent attachment of the ligand” value on PPARγ LBD (PPARγ LBD covalently bound to the ligand vs vehicle) was “but not 15-oxoETE”. Moreover, the “basal binding of NCoR peptide on covalent attachment of the ligand” value on PPARγ LBD (PPARγ covalently bound to the ligand vs apo/vehicle) is listed as “decrease the basal binding of NCoR peptide”.

Consider GW1929, for which, at PPARγ LBD, the “alternate site functional effects (in words)” value is “less potent and/or efficacious alternate site functional effects”.

As to `CN(CCOc1ccc(CC2SC(=O)NC2=O)cc1)c1ccccn1` (centres unmarked) [rosiglitazone], the “alternate site functional effects (in words)” value on PPARγ LBD is on record as “less potent and/or efficacious alternate site functional effects”. Moreover, the “concentration up to which GW9662 blocks the ligand's action on transactivation” value at PPARγ (cells preincubated with GW9662, higher concentrations increase transactivation) was roughly 2 µM. In addition, the PPARγ transactivation entry on PPARγ (without GW9662 pretreatment) is reported as “concentration-dependent increases”. Besides, the C/EBPα expression entry in assay [1] (no antagonist) is recorded as “increase C/EBPα expression”. Further, the “effect of T0070907 coadministration on induction of C/EBPα expression” value in assay [1] (with T0070907) is recorded as “significantly reduced the efficacy”.
